US20240041042A1, “1-(PYRIDYL)-5-AZINYLPYRAZOLE DERIVATIVES, AND THEIR USE FOR CONTROL OF UNDESIRED PLANT GROWTH” (Bayer Aktiengesellschaft, priority 2020, published 2024)
Like-named read-outs stand apart in the source and are kept apart here.

Key:
Format in all cases: in vivo
[1] = test system: Pharbitis purpurea (PHBPU); assay: Post-emergence herbicidal action against PHBPU
Outline: (§1)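 Values are percent visual activity (0% like control, 100% plants dead) after about 3 weeks in the greenhouse. Treatment: post-emergence spray at one-leaf stage, 600 l/ha spray volume, 0.5% additive, doses 320 g/ha or lower.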

[2] = test system: Avena fatua (AVEFA); assay: Post-emergence herbicidal action against AVEFA; conditions: visual rating about 3 weeks after treatment
Outline: as §1

[3] = test system: Matricaria inodora (MATIN); assay: Pre-emergence herbicidal action against MATIN
Outline: (§2)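 Herbicide applied to soil before seedling emergence, at 600 l/ha spray volume with 0.5% additive and rates up to 320 g/ha. Evaluation: visual percentage effect, about 3 weeks later, greenhouse-grown pots compared with untreated ones.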

[4] = test system: Abutilon theophrasti (ABUTH); assay: Pre-emergence herbicidal action against ABUTH; conditions: 100% = plants have died
Outline: as §2

[5] = test system: Oryza sativa (ORYSA); conditions: crop plant compatibility
Outline: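 Greenhouse crops in sandy loam sprayed post-emergence at the one-leaf stage, 2–3 weeks after sowing, with WP or EC formulations in water plus 0.5% additive at 600 l/ha. Damage rated visually about 3 weeks later versus untreated controls (0% = like control, 100% = dead); suffixes a–c denote different doses.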

[6] = test system: Digitaria sanguinalis (DIGSA); assay: Pre-emergence herbicidal action against DIGSA
Outline: as §2

[7] = test system: Oryza sativa (ORYSA); conditions: crop plant compatibility; for Pre-emergence action against ORYSA: 20 g/ha, effect vs untreated controls
Outline: (§3)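 Scoring: visual, % of untreated control, about 3 weeks after a pre-emergence application to the soil surface. Application used WP or EC formulations diluted in water with 0.5% additive at 600 l/ha; dosage levels are marked by suffixes a, b and c.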

[8] = test system: Zea mays (ZEAMX); conditions: 20 g/ha; crop plant compatibility, effect vs untreated controls
Outline: as §3

[9] = test system: Digitaria sanguinalis (DIGSA); assay: Post-emergence herbicidal action against DIGSA; conditions: visual rating about 3 weeks after treatment
Outline: as §1

[10] = Dosage column 320 g/ha (title prints 3200 g/ha), scored visually after about 3 weeks
[11] = 80 g/ha, effect in comparison to untreated controls
[12] = 320 g/ha, effect in comparison to untreated controls
[13] = 80 g/ha, scored visually after about 3 weeks vs untreated controls, 0% = like control plants
[14] = 80 g/ha, visual scoring after about 3 weeks vs untreated controls
[15] = 20 g/ha, effect vs untreated controls

Row | Compound | Post-emergence action against PHBPU in % ([1]; dosage 80 g/ha) [%] | Post-emergence action against PHBPU in % ([1]; dosage 320 g/ha) [%] | Post-emergence action against AVEFA in % ([2]; 80 g/ha) [%] | Post-emergence action against AVEFA in % ([2]; 320 g/ha) [%] | Pre-emergence action against MATIN in % ([3]; dosage 80 g/ha) [%] | Pre-emergence action against MATIN in % ([3]; dosage 320 g/ha) [%] | Pre-emergence action against ABUTH [4, 10] [%] | Post-emergence action against ORYSA in % [5, 11] [%] | Post-emergence action against ORYSA in % [5, 12] [%] | Pre-emergence action against ABUTH [4, 13] [%] | Pre-emergence action against DIGSA in % [6, 14] [%] | Pre-emergence action against DIGSA in % ([6]; dosage 320 g/ha) [%] | Pre-emergence action against ORYSA [7] [%] | Pre-emergence action against ZEAMX [8] [%] | Post-emergence action against ORYSA in % [5, 15] [%] | Post-emergence action against DIGSA in % ([9]; 320 g/ha) [%] | Post-emergence action against DIGSA in % ([9]; 80 g/ha) [%] | Pre-emergence action against ORYSA in % ([7]; pre-emergence, 80 g/ha, in comparison to untreated controls) [%]
1 | C[C@@H](Oc1nn(-c2ncccc2F)c(-c2ccc(F)nc2)c1C1CC1)C(=O)O [Example I-342] | 80 | 90 | 90 | 100 | 100 | 100 | 90 | – | – | – | – | – | – | – | – | – | – | –
2 | COC(=O)C(C)NC(=O)[C@@H](C)Oc1nn(-c2ccccn2)c(-c2cncc(F)c2)c1Br (stereo partly shown) [Example I-190] | – | – | – | 80 | 90 | 90 | 80 | 20 | – | – | – | – | – | – | – | – | – | –
3 | COC(=O)CNC(=O)[C@@H](C)Oc1nn(-c2ccccn2)c(-c2cncc(F)c2)c1Br [Example I-187] | – | 80 | – | 80 | 90 | 90 | 90 | 10 | 20 | 80 | – | – | – | – | – | – | – | –
4 | COC(=O)[C@@H](C)Oc1nn(-c2ncccc2F)c(-c2ccc(F)nc2)c1C1CC1 [Example I-307] | 80 | 90 | 90 | 90 | 90 | 100 | 80 | – | – | – | – | – | – | – | – | – | – | –
5 | COC(=O)COc1nn(-c2ncccc2F)c(-c2cncc(F)c2)c1Br [Example I-16] | 90 | 90 | – | – | 100 | 100 | – | 10 | – | – | 100 | 100 | 20 | 10 | 0 | – | – | –
6 | O=C(O)COc1nn(-c2ncccc2F)c(-c2ccc(F)nc2)c1Br [Example I-08] | 80 | 80 | 80 | 90 | – | 100 | 80 | – | – | – | 100 | 100 | – | – | – | 90 | – | –
7 | O=C(O)COc1nn(-c2nc(F)ccc2F)c(-c2cncc(F)c2)c1C1CC1 [Example I-148] | 80 | 90 | – | 80 | 90 | 90 | – | – | – | – | 90 | 100 | – | – | – | 90 | 80 | –
8 | C[C@@H](Oc1nn(-c2ncccc2F)c(-c2ccc(F)nc2)c1Br)C(=O)O [Example I-18] | – | – | – | 80 | 100 | 100 | 90 | 10 | 20 | 80 | 100 | 100 | – | – | 0 | 90 | 90 | –
9 | COC(=O)C(C)COC(=O)[C@@H](C)Oc1nn(-c2ccccn2)c(-c2cncc(F)c2)c1Br (stereo partly shown) [Example I-188] | 90 | 90 | 80 | 80 | 90 | 90 | 90 | 20 | – | 80 | – | – | – | – | – | – | – | –
10 | CCOC(=O)COc1nn(-c2nc(F)ccc2F)c(-c2cncc(F)c2)c1Br [Example I-193] | 90 | 100 | 80 | 90 | 90 | 90 | – | 10 | – | – | – | – | – | – | – | – | – | 20
11 | CCOC(=O)[C@@H](C)Oc1nn(-c2ncccc2F)c(-c2ccc(F)nc2)c1C1CC1 [Example I-375] | 80 | 90 | 90 | 90 | 100 | 100 | 100 | – | – | – | – | – | – | – | – | – | – | –
12 | COC(=O)[C@@H](C)Oc1nn(-c2ccccn2)c(-c2cncc(F)c2)c1Cl [Example I-189] | 90 | 90 | 90 | 90 | 90 | 100 | 90 | – | – | 80 | – | – | – | – | – | – | – | –
13 | C[C@@H](Oc1nn(-c2ncccc2F)c(-c2ccc(F)nc2)c1I)C(=O)O [Example I-343] | – | 90 | 80 | 80 | – | 100 | 100 | 10 | – | 80 | – | – | – | – | – | – | – | –
14 | CCOC(=O)COc1nn(-c2ccccn2)c(-c2ccc(F)nc2)c1Br [Example I-02] | 90 | 100 | – | 80 | – | 100 | – | – | – | – | – | – | 0 | 0 | – | – | – | –
15 | C[C@@H](Oc1nn(-c2nc(F)ccc2F)c(-c2cncc(F)c2)c1C1CC1)C(=O)O [Example I-180] | – | – | 80 | 90 | 90 | 90 | 80 | – | – | – | 90 | 100 | – | – | – | 80 | 80 | –
16 | COC(=O)[C@@H](C)Oc1nn(-c2ncccc2F)c(-c2ccc(F)nc2)c1C(F)(F)F [Example I-331] | – | 90 | 90 | 90 | 100 | 100 | 90 | – | – | 80 | – | – | – | – | – | – | – | –
17 | O=C(O)COc1nn(-c2ccccn2)c(-c2cncnc2)c1Br [Example I-66] | – | 80 | – | 100 | – | 90 | – | 10 | 20 | – | 100 | 100 | – | – | – | 90 | – | –
18 | COC(=O)C(C)COC(=O)[C@@H](C)Oc1nn(-c2ccccn2)c(-c2cncc(F)c2)c1Cl (stereo partly shown) [Example I-198] | 80 | 90 | 80 | 80 | 90 | 90 | 90 | – | – | – | – | – | – | – | – | – | – | –
19 | CCOC(=O)[C@@H](C)Oc1nn(-c2nc(F)ccc2F)c(-c2cncc(F)c2)c1Cl [Example I-208] | 80 | 90 | – | – | 90 | 90 | 90 | 0 | – | 80 | 90 | 100 | – | – | – | 90 | 80 | –
20 | CCOC(=O)[C@@H](C)Oc1nn(-c2ccccn2)c(-c2cncc(F)c2)c1Cl [Example I-184] | 90 | 90 | 80 | 90 | 90 | 90 | 90 | – | – | 90 | – | – | – | – | – | – | – | –
21 | COC(=O)C(C)COC(=O)C(C)Oc1nn(-c2ccccn2)c(-c2ccc(F)nc2)c1Cl (stereo not shown) [Example I-291] | 80 | 90 | 80 | 80 | – | 90 | – | 0 | – | – | 100 | 100 | – | – | – | – | – | –
22 | CCOC(=O)COc1nn(-c2ccccn2)c(-c2ccc(F)nc2)c1Cl [Example I-85] | 90 | 90 | – | 100 | 100 | 100 | – | – | – | – | – | – | – | – | – | – | – | –
